Laboratory results from ChEMBL document CHEMBL1156536, “Thiocarbamates as non-nucleoside HIV-1 reverse transcriptase inhibitors. Part 2: Parallel synthesis, molecular modelling and structure-activity relationship studies on analogues of O-(2-phenylethyl)-N-phenylthiocarbamate” (Bioorg Med Chem, 2008).
Activity calls are given as the source filed them. The calls are words filed in the database; no cut-off is given here.

What was measured:
[1] = Cytotoxicity against mock-infected human MT4 cells by MTT assay; format: cell-based
[2] = tested on: Human immunodeficiency virus 1; test: Antiviral activity against HIV1 in human MT4 cells assessed as inhibition of virus-induced cytopathogenicity by MTT assay; format: functional, organism-based; conditions: Human immunodeficiency virus 1, MT4
[3] = Selectivity index, ratio of CC50 for human MT4 cells to EC50 for HIV1; format: toxicity, cell-based; conditions: read-out: Ratio CC50/EC50
[4] = tested on: Human immunodeficiency virus 1; test: Antiviral activity against HIV1 with reverse transcriptase Y181C mutation in human MT4 cells assessed as inhibition of virus-induced cytopathogenicity by MTT assay; format: functional, organism-based; conditions: Human immunodeficiency virus 1, MT4
[5] = tested on: Human immunodeficiency virus 1; test: Antiviral activity against HIV1 with reverse transcriptase K103N/Y181C mutation in human MT4 cells assessed as inhibition of virus-induced cytopathogenicity by MTT assay; format: functional, organism-based; conditions: for EC50: Human immunodeficiency virus 1, MT4
[6] = tested on: Human immunodeficiency virus 1; test: Reduction of HIV1 p24 antigen level in virus infected C8166 cells; format: functional; conditions: Human immunodeficiency virus 1, C8166
[7] = target: Human immunodeficiency virus type 1 reverse transcriptase (Human immunodeficiency virus 1, UniProt Q72547); test: Inhibition of HIV1 recombinant wild type reverse transcriptase

EC90 [6] | IC50 [7] | SMILES | CC50 [1] | EC50 [2] | selectivity ratio [3] | EC50 [4] | EC50 [5] | Activity [5]
 |  | S=C(Nc1ccc(Cl)cc1)OCCOc1ccccc1 | 34 µM | 2.9 µM | 12 |  |  | 
 |  | Cc1ccc(NC(=S)OC(C)COc2ccccc2)cc1Cl (racemic) | > 100 µM | 4 µM | > 25 |  |  | 
 |  | S=C(Nc1ccccc1)OCCSc1ccccc1 | > 100 µM | 38 µM | > 2.6 |  |  | 
 |  | Cc1cccc(CCOC(=S)Nc2ccc([N+](=O)[O-])cc2)c1 | 96 µM | 0.5 µM | 192 | 8.9 µM | 69 µM | 
 |  | S=C(Nc1ccccc1)OC1Cc2ccccc2C1 | > 100 µM | 12 µM | > 8.3 |  |  | 
 |  | S=C(Nc1ccccc1)OCCc1ccccc1 | 100 µM |  |  |  |  | 
0.6 µM |  | CC(COC(=S)Nc1ccc([N+](=O)[O-])cc1)c1ccccc1 (racemic) | > 100 µM | 0.6 µM | > 167 |  |  | 
 |  | COc1ccc(NC(=S)OCCOc2ccccc2)cc1 | 48 µM | 17 µM | 2.8 |  |  | 
 |  | CC(COC(=S)Nc1ccc(Cl)cc1)c1ccccc1 (racemic) | 30 µM | 0.2 µM | 150 | 12 µM |  | inactive
 |  | Cc1ccc(CCOC(=S)Nc2ccc([N+](=O)[O-])cc2)cc1 | > 100 µM | 0.3 µM | > 333 | 8.6 µM | 92 µM | 
 |  | COc1cccc(CCOC(=S)Nc2ccc([N+](=O)[O-])cc2)c1 | > 100 µM | 0.2 µM | > 500 | 8.3 µM |  | inactive
 |  | S=C(Nc1ccccc1)OCCOc1ccccc1 | > 100 µM | 5.8 µM | > 17 |  |  | 
 |  | CC(Cc1ccccc1)OC(=S)Nc1ccc([N+](=O)[O-])cc1 (racemic) | 39 µM | 1.3 µM | 30 |  |  | 
 |  | S=C(Nc1ccc(Cl)cc1)OCCc1ccccc1 | > 100 µM |  |  |  |  | 
 |  | COc1ccccc1CCOC(=S)Nc1ccc(Cl)c([N+](=O)[O-])c1 | 44 µM | 0.9 µM | 49 |  |  | 
 |  | O=[N+]([O-])c1ccc(NC(=S)OCCc2ccccc2Cl)cc1 | > 100 µM | 0.4 µM | > 250 |  |  | 
 |  | O=[N+]([O-])c1ccc(NC(=S)OCCc2ccc(Cl)cc2)cc1 | > 100 µM | 13 µM | > 7.7 |  |  | 
 |  | CC(OC(=S)Nc1ccc(Cl)cc1)c1ccc(-c2ccccc2)cc1 (racemic) | > 100 µM | 57 µM | > 1.8 |  |  | 
 |  | O=[N+]([O-])c1ccc(NC(=S)OCCc2ccccc2)cc1 | > 100 µM |  |  |  |  | 
 |  | COc1ccccc1CCOC(=S)Nc1ccc(Cl)cc1 | 43 µM | 0.07 µM | 614 | 8.9 µM |  | inactive
 |  | COc1ccccc1CCOC(=S)Nc1ccc([N+](=O)[O-])cc1 | > 100 µM | 0.1 µM | > 1000 |  |  | 

EC90 [6] | IC50 [7] | SMILES | CC50 [1] | EC50 [2] | selectivity ratio [3] | EC50 [4] | EC50 [5] | Activity [5]
 |  | O=[N+]([O-])c1ccc(OCCOC(=S)Nc2ccc(Cl)cc2)cc1 | 72 µM | > 72 µM | < 1 |  |  | 
 |  | O=[N+]([O-])c1ccc(NC(=S)OCCc2ccc(Br)cc2)cc1 | > 100 µM | 7.9 µM | > 13 |  |  | 
 |  | CC(COc1ccccc1)OC(=S)Nc1ccc(F)cc1 (racemic) | > 100 µM | 11 µM | > 9 |  |  | 
 |  | COc1ccc(CCOC(=S)Nc2ccc([N+](=O)[O-])cc2)cc1 | > 100 µM | 1.4 µM | > 71 |  |  | 
 |  | Cc1ccc(NC(=S)OCCc2ccccc2)cc1 | > 100 µM |  |  |  |  | 
 |  | S=C(Nc1ccccc1)OC/C=C/c1ccccc1 | > 100 µM | 67 µM | > 1.5 |  |  | 
 |  | S=C(Nc1ccccc1)OCc1cccs1 | 38 µM | > 38 µM | < 1 |  |  | 
 |  | S=C(Nc1ccccc1)OCCCc1ccccc1 | > 100 µM | 67 µM | > 1.5 |  |  | 
 |  | COc1cccc(CCOC(=S)Nc2ccc(Cl)c([N+](=O)[O-])c2)c1 | 43 µM | 2 µM | 22 |  |  | 
 |  | S=C(Nc1ccccc1)OCc1c(Cl)cccc1Cl | > 100 µM | > 100 µM |  |  |  | 
 |  | CCC(OC(=S)Nc1ccccc1)c1ccccc1 (racemic) | > 100 µM | > 100 µM |  |  |  | 
 |  | CC(COc1ccccc1)OC(=S)Nc1ccc([N+](=O)[O-])cc1 (racemic) | > 100 µM | 2.6 µM | > 38 |  |  | 
 |  | O=[N+]([O-])c1ccc(NC(=S)OCCc2cccc(Cl)c2)cc1 | > 100 µM | 1.5 µM | > 67 |  |  | 
 |  | Oc1ccccc1OCCOC(=S)Nc1ccccc1 | > 100 µM | 19 µM | > 5.2 |  |  | 
 |  | CC(Cc1ccccc1)OC(=S)Nc1ccccc1 (racemic) | > 100 µM | 9 µM | > 11 |  |  | 
 | 1.4 µM | Cc1ccc(NC(=S)OC(C)COc2ccccc2)cc1 (racemic) | 24 µM | 1.2 µM | 20 |  |  | 
 | 1 µM | CC(COc1ccccc1)OC(=S)Nc1ccccc1 (racemic) | > 100 µM | 2 µM | > 50 |  |  | 
 |  | O=[N+]([O-])c1ccc(NC(=S)OCCc2ccccc2O)cc1 | 36 µM | 10 µM | 3.6 |  |  | 
 |  | CC(OC(=S)Nc1ccc([N+](=O)[O-])cc1)c1ccc(Cl)cc1 (racemic) | > 100 µM | 7 µM | > 14 |  |  | 
 |  | COc1ccccc1CCOC(=S)Nc1ccc(Cl)c(Cl)c1 | > 45 µM | 0.3 µM | > 150 |  |  | 
 |  | O=[N+]([O-])c1ccc(NC(=S)OCCOc2ccccc2)cc1 | > 100 µM | 8.5 µM | > 12 |  |  | 

EC90 [6] | IC50 [7] | SMILES | CC50 [1] | EC50 [2] | selectivity ratio [3] | EC50 [4] | EC50 [5] | Activity [5]
 |  | CC(OC(=S)Nc1ccccc1)c1ccc(Cl)cc1 (racemic) | > 100 µM | 5.3 µM | > 19 |  |  | 
 |  | COc1ccc(NC(=S)OCCc2ccccc2)cc1 | 36 µM |  |  |  |  | 
 |  | O=[N+]([O-])c1ccc(NC(=S)OCCc2cccc(O)c2)cc1 | 24 µM | 3.7 µM | 6.5 |  |  | 
 |  | S=C(Nc1ccccc1)OCC1(c2ccccc2)CC1 | 51 µM | 7 µM | 7.3 |  |  | 
0.015 µM |  | S=C(NCCc1ccccn1)Nc1ccc(Br)cn1 [TROVIRDINE] | 60 µM |  | 3000 |  |  | 
 |  | COc1cccc(CCOC(=S)Nc2ccc(Cl)c(Cl)c2)c1 | 44 µM | 1 µM | 44 |  |  | 
 |  | S=C(Nc1ccccc1)OCC(c1ccccc1)c1ccccc1 | > 100 µM | > 100 µM |  |  |  | 
 |  | COc1cccc(CCOC(=S)Nc2ccc(Cl)cc2)c1 | 94 µM | 0.08 µM | 1180 | 12 µM | 86 µM | 
 |  | O=[N+]([O-])c1ccc(NC(=S)OCCc2ccc(O)cc2)cc1 | 41 µM | > 41 µM | < 1 |  |  | 
 |  | Cc1ccccc1CCOC(=S)Nc1ccc([N+](=O)[O-])cc1 | > 100 µM | 0.7 µM | > 143 |  |  | 
 |  | CC(OC(=S)Nc1ccc(Cl)cc1)c1cccc2ccccc12 (racemic) | > 100 µM | 82 µM | > 1.2 |  |  | 
 |  | CC(OC(=S)Nc1ccc(Cl)cc1)c1ccc2ccccc2c1 (racemic) | > 100 µM | 26 µM | > 3.8 |  |  | 
 |  | S=C(Nc1ccccc1)OCC1COc2ccccc2O1 (stereo unspecified) | > 100 µM | 52 µM | > 1.9 |  |  | 
 |  | CC(COc1ccccc1)OC(=S)Nc1ccc(Cl)cc1 (racemic) | > 100 µM | 1.6 µM | > 63 |  |  | 
 |  | O=[N+]([O-])c1ccc(NC(=S)OCCOc2ccc(Br)cc2)cc1 | > 100 µM | > 100 µM |  |  |  | 
 |  | CC(COC(=S)Nc1ccc(Cl)c([N+](=O)[O-])c1)c1ccccc1 (racemic) | 41 µM | 0.5 µM | 82 |  |  | 
 |  | S=C(Nc1ccccc1)OCc1cccc(Oc2ccccc2)c1 | > 100 µM | > 100 µM |  |  |  | 
 |  | COc1ccc(NC(=S)OC(C)COc2ccccc2)cc1 (racemic) | > 100 µM | > 100 µM |  |  |  | 
 |  | CC(COC(=S)Nc1ccc(Cl)c(Cl)c1)c1ccccc1 (racemic) | 44 µM | 0.3 µM | 147 |  |  | 
 |  | O=C1Nc2ccc(Cl)cc2C(C#CC2CC2)(C(F)(F)F)O1 (single isomer, unassigned) [EFAVIRENZ] |  |  |  |  | 0.04 µM | 
 |  | Cc1ccc(NC(=S)OCCOc2ccccc2)cc1 | 74 µM | 10 µM | 7.4 |  |  | 
